{
  "source": "patent US7012098B2",
  "about": "“Inhibitors of inducible nitric oxide synthase for chemoprevention and treatment of cancers” (Pharmacia Corporation, priority 2001, dated 2006)",
  "key": {"COX-1": {"molecular_target": "T1, COX-1 (Rattus norvegicus, UniProt Q63921)", "T1 sequence (Q63921 27-602)": "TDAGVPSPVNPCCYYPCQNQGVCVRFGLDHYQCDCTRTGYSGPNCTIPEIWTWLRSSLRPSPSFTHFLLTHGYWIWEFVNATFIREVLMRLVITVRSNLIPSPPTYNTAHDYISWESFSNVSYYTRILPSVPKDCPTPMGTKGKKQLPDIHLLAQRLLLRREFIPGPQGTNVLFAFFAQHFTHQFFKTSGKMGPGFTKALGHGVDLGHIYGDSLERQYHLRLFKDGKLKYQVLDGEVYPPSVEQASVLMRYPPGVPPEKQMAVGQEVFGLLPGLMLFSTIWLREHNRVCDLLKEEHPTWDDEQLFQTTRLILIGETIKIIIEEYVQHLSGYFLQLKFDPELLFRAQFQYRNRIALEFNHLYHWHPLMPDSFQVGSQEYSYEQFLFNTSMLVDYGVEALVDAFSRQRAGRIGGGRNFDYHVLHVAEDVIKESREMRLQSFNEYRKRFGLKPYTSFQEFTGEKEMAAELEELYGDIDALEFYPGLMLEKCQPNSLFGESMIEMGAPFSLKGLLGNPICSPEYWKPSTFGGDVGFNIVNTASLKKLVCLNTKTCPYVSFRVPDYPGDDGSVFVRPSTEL", "experiment": "Colonic mucosal COX-1 activity after dietary treatment", "type": "in vivo, male F344 rats", "settings": "100 ppm in diet; AOM-treated rats, colonic mucosa; Mean ± SEM", "method": "For determining COX-2 activity, proteins were preincubated with 50 μM of aspirin to block the activity of COX-1. After incubation at 37° C. for 15 min, the reaction was terminated by adding 40 μl of 0.2 M HCl. The COX-mediated metabolites of arachidonic acid were extracted with ethyl acetate (3×0.5 ml). The combined extracts were evaporated to dryness under N2, redissolved in chloroform, and subjected to thin layer chromatography on precoated TLC plastic plates (silica G 60, 20×20 cm, layer thickness 150 μm). […] The metabolites of ^14C-AA corresponding to PGE2, PGF2α, PGD2, 6-Keto PGF1α, and TXB2 were detected by their comigration (Rf-values) with authentic standards. The area of each metabolite was determined in a Bioscan System 200 image scanning counter (Bioscan Inc., Washington, D.C.) equipped with β-detector."}, "NOS": {"system": "NOS", "experiment": "Colonic mucosal NOS activity after dietary treatment", "type": "in vivo, male F344 rats", "settings": "100 ppm in diet; AOM-treated rats, colonic mucosa; Mean ± SEM", "method": "In Vivo Assay of Modulation of Colonic Mucosal Activities of NOS and COX isoforms by iNOS and COX-2 Inhibitors\nNOS and iNOS activities were determined in colonic samples as prepared and described above. Conversion of L-arginine to L-citrulline was measured by a modification of an earlier described method (Rao et al, Carcinogenesis 21, supra; Ambs et al., Cancer Res. 58:334-41, 1998, which is herein incorporated by reference). The assay was carried out by adding 100 μg sample protein to 150 μl of assay buffer [50 mM HEPES, 1 mM DTT, 1 mM MgCl2, 5 mg/L pepstatin A, 0.1 mM PMSF, and 3 mg/L aprotinin, pH 7.4] containing 70 μM arginine, 250,000 dpm L-[^3H]-arginine, 2 mM NADPH, 5μM tetrahydro biopterin, 5 μM flavin adenine dinucleotide, and 0.5 mM CaCi2 to measure total NOS activity, or 1 mM EGTA (without calcium) to determine Ca+^2-independent iNOS activity. After 30 min at 37° C., the reaction was stopped with 100 μl of 1M trichloroacetic acid. Then the samples were adjusted to pH 4.6 by adding 500 μl of 20 mM HEPES and loaded on to Dowex AG 50W-X8 resin columns. L-[^3H]-citrulline was eluted and separated on TLC. Radioactivity was counted by a BioScan Radiomatic detector. Results are expressed as pmol L-[^3H]-citrulline released/mg protein/min."}},
  "note": "Where a name gives a salt, the structure may show the parent alone. Read-outs that look alike come from different tables or passages of the source.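 Wherever Plasma level is given: plasma drug concentrations quantified by liquid chromatography with tandem mass spectrometry following solid phase extraction, reported as mean ± SEM.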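 Wherever Plasma level of compound XI is given: plasma drug concentrations quantified by liquid chromatography with tandem mass spectrometry following solid phase extraction, reported as mean ± SEM.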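 Wherever absorption is given: plasma drug concentrations quantified by liquid chromatography with tandem mass spectrometry following solid phase extraction, reported as mean ± SEM.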",
  "data": [
    {"smiles": "CC(=N)NCCCC[C@H](N)C(=O)Nc1nnn[nH]1", "note": "[compound XI, 2S-amino-6-[(1-iminoethyl)amino]-N-(1H-tetrazol-5-yl)hexanamide, hydrate, dihydrochloride]", "values": [
      {"measurement": "COX-Activity, COX-1", "setting": "COX-1", "result": "11.3 ± 1.4 pmoles [^14C]-AA metabolized/m"},
      {"measurement": "NOS Activity, NOS", "setting": "NOS", "result": "9.8 ± 1.5 pmoles [^3H]-citrulline/mg pro"},
      {"measurement": "absorption", "setting": "3 dose levels (10, 30, 100 ppm in diet)", "result": "Dose-dependant"},
      {"measurement": "Plasma level", "setting": "10 ppm in diet, Early, One week on diet, Mean ± SEM, hydrate, dihydrochloride", "result": "461 ± 15 ηg/mI"},
      {"measurement": "Plasma level", "setting": "10 ppm in diet, Late, 9 weeks on diet, Mean ± SEM, hydrate, dihydrochloride", "result": "254 ± 13 ηg/mI"},
      {"measurement": "Plasma level", "setting": "10 ppm in diet, Mid, 5 weeks on diet, Mean ± SEM, hydrate, dihydrochloride", "result": "341 ± 9.7 ηg/mI"},
      {"measurement": "Plasma level of compound XI", "setting": "30 ppm compound XI + 500 ppm Celecoxib in diet, Early, One week on diet", "result": "1240 ± 37 + ηg/mI"},
      {"measurement": "Plasma level of compound XI", "setting": "30 ppm compound XI + 500 ppm Celecoxib in diet, Late, 9 weeks on diet", "result": "788 ± 63 ηg/mI"},
      {"measurement": "Plasma level of compound XI", "setting": "30 ppm compound XI + 500 ppm Celecoxib in diet, Mid, 5 weeks on diet", "result": "901 ± 5.0 + ηg/mI"},
      {"measurement": "Plasma level", "setting": "30 ppm in diet, first of 3 time points", "result": "1315 ηg/ml"},
      {"measurement": "Plasma level", "setting": "30 ppm in diet, second of 3 time points", "result": "821 ηg/ml"},
      {"measurement": "Plasma level", "setting": "30 ppm in diet, third of 3 time points", "result": "742 ηg/ml"},
      {"measurement": "Plasma level of compound XI", "setting": "100 ppm compound XI + 500 ppm Celecoxib in diet, Early, One week on diet", "result": "4370 ± 112 + ηg/mI"},
      {"measurement": "Plasma level of compound XI", "setting": "100 ppm compound XI + 500 ppm Celecoxib in diet, Late, 9 weeks on diet", "result": "2477 ± 204 + ηg/mI"},
      {"measurement": "Plasma level of compound XI", "setting": "100 ppm compound XI + 500 ppm Celecoxib in diet, Mid, 5 weeks on diet", "result": "3096 ± 344 + ηg/mI"},
      {"measurement": "Plasma level", "setting": "100 ppm in diet, Early, One week on diet, Mean ± SEM, hydrate, dihydrochloride", "result": "4306 ± 146 ηg/mI"},
      {"measurement": "Plasma level", "setting": "100 ppm in diet, Late, 9 weeks on diet, Mean ± SEM, hydrate, dihydrochloride", "result": "2639 ± 268 ηg/mI"},
      {"measurement": "Plasma level", "setting": "100 ppm in diet, Mid, 5 weeks on diet, Mean ± SEM, hydrate, dihydrochloride", "result": "2811 ± 82 ηg/mI"}
    ]}
  ]
}
